According to patent US4309437A, “Pyrrolo-benzodiazepine compounds and anti-tumor composition thereof” (priority 1979, dated 1982):
Where a name gives a salt, the structure may show the parent alone.

Key:
dd-strain male mice = experiment: Toxicity test (LD50, intraperitoneal, mice); type: in vivo, mouse; details: 18 to 21 g, 3 weeks observation, Probit analysis, 30240 min
Method: (§1) Toxicity test: The compound being tested is suspended in physiological saline in varied concentrations by the serial dilution method (common ratio, 1:1.5). Each solution was administered intraperitoneally to groups of 8 to 12 dd-strain male mice, each 18 to 21 g in body weight. The mice were then bred on a usual diet and water. The LD50 value was determined by Probit analysis by observing dead and alive for 3 weeks after the administration.

[1] = Toxicity test (LD50, intraperitoneal, mice); type: in vivo, mouse; details: mouse, in vivo, ip, dd-strain male mice, 18 to 21 g, 3 weeks observation, Probit analysis
Method: as §1

[2] = said to be exhibited due to side effects; cited from earlier work
[3] = known, in words; cited from earlier work
[4] = known, in words; cited from earlier work; remark: listed apart in the source

CC(=O)N1c2c(ccc(C)c2O)C(=O)N2C=C(/C=C/C(N)=O)CC2C1S(=O)(=O)O (stereo not shown) [R1=H, R2=COCH3, R3=SO3 H, 5,10,11,11a-Tetrahydro-10-acetyl-9-hydroxy-8-methyl-5-oxo-11-sulfo-1H-pyrrolo[2,1-c][1,4]benzodiazepin-2-acrylamine] showed an LD50 (dd-strain male mice) of 2.43 mg/kg.
CC(=O)Oc1c(C)ccc2c1N(C(C)=O)C(S(=O)O)C1CC(/C=C/C(N)=O)=CN1C2=O (stereo not shown) [R1=COCH3, R2=COCH3, R3=SO2 Na] showed an LD50 at 504 h [1] of 2.71 mg/kg.
Work on Cc1ccc2c(c1O)NC(S(=O)O)C1CC(/C=C/C(N)=O)=CN1C2=O (stereo not shown) [R1=H, R2=H, R3=SO2 H, 5,10,11,11a-tetrahydro-9-hydroxy-8-methyl-5-oxo-11-sulfino-1H-pyrrolo[2,1-c][1,4]-benzodiazepin-2-acrylamide] yielded an LD50 at 504 h [1] of 2.18 mg/kg.
Cc1ccc2c(c1O)NC(S(=O)O)C1CC(/C=C/C(N)=O)=CN1C2=O (stereo not shown) [R1=H, R2=H, R3=SO2 K] gave an LD50 (dd-strain male mice) of 2.31 mg/kg.
CC(=O)N1c2c(ccc(C)c2O)C(=O)N2C=C(/C=C/C(N)=O)CC2C1S(=O)(=O)O (stereo not shown) [R1=H, R2=COCH3, R3=SO3 Na, 5,10,11,11a-tetrahydro-10-acetyl-9-hydroxy-8-methyl-5-oxo-11-sulfo-1H-pyrrolo[2,1-c][1,4]benzodiazepin-2-acrylamide sodium salt] gave an LD50 at 504 h [1] of 2.51 mg/kg.
Compound COC(=O)Oc1c(C)ccc2c1NC(S(=O)O)C1CC(/C=C/C(N)=O)=CN1C2=O (stereo not shown) [R1=COOCH3, R2=H, R3=SO2 H] has an LD50 at 504 h [1] of 2.56 mg/kg.
With CC(=O)N1c2c(ccc(C)c2OC(N)=O)C(=O)N2C=C(/C=C/C(N)=O)CC2C1S(=O)O (stereo not shown) [R1=CONH2, R2=COCH3, R3=SO2 H, 5,10,11,11a-tetrahydro-10-acetyl-9-carbamyloxy-8-methyl-5-oxo-11-sulfino-1H-pyrrolo[2,1-c][1,4]benzodiazepin-2-acrylamide] the LD50 at 504 h [1] was 2.84 mg/kg.
With COC(=O)Oc1c(C)ccc2c1NC(S(=O)(=O)O)C1CC(/C=C/C(N)=O)=CN1C2=O (stereo not shown) [R1=COOCH3, R2=H, R3=SO3 H, 5,10,11,11a-tetrahydro-8-methyl-9-methoxycarbonyloxy-5-oxo-11-sulfo-1H-pyrrolo[2,1-c][1,4]-benzodiazepin-2-acrylamide] the LD50 at 504 h [1] was 2.55 mg/kg.
In the case of Cc1ccc2c(c1O)N=CC1CC(/C=C/C(N)=O)=CN1C2=O (stereo not shown) [P'B'A', 5,11,11a-trihydro-9-hydroxy-8-methyl-5-oxo-1H-pyrrolo-[2,1-c][1,4]benzodiazepin-2-acrylamide], the “toxicity, particularly cardiotoxicity” value [2] is listed as “strong toxicity, particularly cardiotoxicity”, the antitumor activity [3] is listed as “very strong antitumor activity” and the antibacterial activity [4] is listed as “antibacterial and antitumor activities are exhibited”.
Compound CC(=O)Oc1c(C)ccc2c1NC(S(=O)O)C1CC(/C=C/C(N)=O)=CN1C2=O (stereo not shown) [R1=COCH3, R2=H, R3=SO2 H, 5,10,11,11a-Tetrahydro-9-acetoxy-8-methyl-5-oxo-11-sulfino-1H-pyrrolo[2,1-c][1,4]benzodiazepin-2-acrylamide] has an LD50 at 504 h [1] of 2.54 mg/kg.
Work on Cc1ccc2c(c1O)NC(S(=O)O)C1CC(/C=C/C(N)=O)=CN1C2=O (stereo not shown) [R1=H, R2=H, R3=SO2 Na] yielded an LD50 (dd-strain male mice) of 2.28 mg/kg.
For COC1Nc2c(ccc(C)c2O)C(=O)N2C=C(/C=C/C(N)=O)CC12 (single isomer, unassigned) [P"B"A"], the “toxicity, particularly cardiotoxicity” value [2] is listed as “strong toxicity, particularly cardiotoxicity”, the antitumor activity [3] is listed as “very strong antitumor activity” and the antibacterial activity [4] is listed as “antibacterial and antitumor activities are exhibited”.
In the case of Cc1ccc2c(c1O)NC(S(=O)(=O)O)C1CC(/C=C/C(N)=O)=CN1C2=O (stereo not shown) [R1=H, R2=H, R3=SO3 Na], the LD50 (dd-strain male mice) was 2.31 mg/kg.
Work on CC(=O)Oc1c(C)ccc2c1N(C(C)=O)C(S(=O)O)C1CC(/C=C/C(N)=O)=CN1C2=O (stereo not shown) [R1=COCH3, R2=COCH3, R3=SO2 H, 5,10,11,11a-tetrahydro-9-acetoxy-10-acetyl-8-methyl-5-oxo-11-sulfino-1H-pyrrolo-[2,1-c][1,4]benzodiazepin-2-acrylamide] yielded an LD50 (dd-strain male mice) of 2.62 mg/kg.
For CC(=O)Oc1c(C)ccc2c1N(C(C)=O)C(S(=O)(=O)O)C1CC(/C=C/C(N)=O)=CN1C2=O (stereo not shown) [R1=COCH3, R2=COCH3, R3=SO3 H, 5,10,11,11a-Tetrahydro-9-acetoxy-10-acetyl-8-methyl-5-oxo-11-sulfo-1H-pyrrolo[2,1-c][1,4]benzodiazepin-2-acrylamide], the LD50 (dd-strain male mice) was 2.81 mg/kg.
In the case of Cc1ccc2c(c1OC(N)=O)NC(S(=O)O)C1CC(/C=C/C(N)=O)=CN1C2=O (stereo not shown) [R1=CONH2, R2=H, R3=SO2 H, 5,10,11,11a-Tetrahydro-9-carbamyloxy-8-methyl-5-oxo-11-sulfino-1H-pyrrolo[2,1-c][1,4]benzodiazepin-2-acrylamide], the LD50 at 504 h [1] was 2.37 mg/kg.
In the case of Cc1ccc2c(c1O)NC(O)C1CC(/C=C/C(N)=O)=CN1C2=O (single isomer, unassigned) [PBA, 5,10,11,11a-tetrahydro-9,11-dihydroxy-8-methyl-5-oxo-1H-pyrrolo[2,1-c][1,4]-benzodiazepin-2-acrylamide], the “toxicity, particularly cardiotoxicity” value [2] is listed as “strong toxicity, particularly cardiotoxicity”, the LD50 at 504 h [1] is listed as 0.73 mg/kg and the antitumor activity [3] is listed as “very strong antitumor activity”. For the same compound, the antibacterial activity [4] was “antibacterial and antitumor activities are exhibited”.
With CC(=O)Oc1c(C)ccc2c1NC(S(=O)(=O)O)C1CC(/C=C/C(N)=O)=CN1C2=O (stereo not shown) [R1=COCH3, R2=H, R3=SO3 H, 5,10,11,11a-tetrahydro-9-acetoxy-8-methyl-5-oxo-11-sulfo-1H-pyrrolo[2,1-c][1,4]benzodiazepin-2-acrylamide] the LD50 at 504 h [1] was 2.68 mg/kg.
CC(=O)Oc1c(C)ccc2c1N(C(C)=O)C(S(=O)(=O)O)C1CC(/C=C/C(N)=O)=CN1C2=O (stereo not shown) [R1=COCH3, R2=COCH3, R3=SO3 Na] showed an LD50 at 504 h [1] of 3.04 mg/kg.
CC(=O)N1c2c(ccc(C)c2OC(N)=O)C(=O)N2C=C(/C=C/C(N)=O)CC2C1S(=O)(=O)O (stereo not shown) [R1=CONH2, R2=COCH3, R3=SO3 H, 5,10,11,11a-Tetrahydro-10-acetyl-9-carbamyloxy-8-methyl-5-oxo-11-sulfo-1H-pyrrolo[2,1-c][1,4]benzodiazepin-2-acrylamide] showed an LD50 at 504 h [1] of 2.8 mg/kg.
For Cc1ccc2c(c1O)NC(S(=O)(=O)O)C1CC(/C=C/C(N)=O)=CN1C2=O (stereo not shown) [R1=H, R2=H, R3=SO3 H, 5,10,11,11a-Tetrahydro-9-hydroxy-8-methyl-5-oxo-11-sulfo-1H-pyrrolo[2,1-c][1,4]benzodiazepin-2-acrylamide], the LD50 at 504 h [1] was 2.21 mg/kg.
For Cc1ccc2c(c1OC(N)=O)NC(S(=O)(=O)O)C1CC(/C=C/C(N)=O)=CN1C2=O (stereo not shown) [R1=CONH2, R2=H, R3=SO3 H, 5,10,11,11a-Tetrahydro-9-carbamyloxy-8-methyl-5-oxo-11-sulfo-1H-pyrrolo[2,1-c][1,4]benzodiazepin-2-acrylamide], the LD50 at 504 h [1] was 2.4 mg/kg.
CC(=O)Oc1c(C)ccc2c1NC(S(=O)O)C1CC(/C=C/C(N)=O)=CN1C2=O (stereo not shown) [R1=COCH3, R2=H, R3=SO2 Na, 5,10,11,11a-tetrahydro-9-acetoxy-8-methyl-5-oxo-11-sulfino-1H-pyrrolo[2,1-c][1,4]benzodiazepin-2-acrylamide sodium salt] showed an LD50 (dd-strain male mice; sodium salt) of 2.60 mg/kg.
Work on CC(=O)N1c2c(ccc(C)c2O)C(=O)N2C=C(/C=C/C(N)=O)CC2C1S(=O)O (stereo not shown) [R1=H, R2=COCH3, R3=SO2 H, 5,10,11,11a-tetrahydro-10-acetyl-9-hydroxy-8-methyl-5-oxo-11-sulfino-1H-pyrrolo-[2,1-c][1,4]benzodiazepin-2-acrylamide] yielded an LD50 at 504 h [1] of 2.5 mg/kg.
